Results reported in ChEMBL document CHEMBL3045899, “New asperxanthone and asperbiphenyl from the marine fungus Aspergillus sp” (2009).

What follows are compounds tested on Tobacco mosaic virus (assay: Inhibitory activity against Tobacco mosaic virus (TMV) inoculated in Nicotiana tabacum L. cv.K326 leaf assessed as inhibition of virus multiplication at 0.2 mg/ml measured by leaf disk method (reference value: 0%)).
Format: functional

| Compound | inhibition at 200 µg/mL [%] |
| --- | --- |
| CCCCCCCC/C=C/C=C/CCCCCCCCCCCCCCCCCCCCCC(=O)OC(CO)CO | 16.3 |
| CCCCCCCC/C=C/C=C/CCCCCCCCCCCCCC/C=C/C=C/CCCC(=O)OC(CO)CO | 14.3 |
| CCCCCCCCCCCCCCCCCCCCCCCCCC/C=C/C=C/C=C/CCC(=O)OC(CO)CO | 13.9 |
| CCCCCCCC/C=C/C=C/CCCCCCCCCCCCCC/C=C/C=C/CCCC(=O)OCC(O)CO (centres undefined) | 17.4 |
| CCCCCCCCCC/C=C/C=C/CCCC(=O)OCC(O)CO (centres undefined) | 12.5 |
| CCCCCCCCCCC/C=C/C=C/CCCC(=O)OCC(O)CO (centres undefined) | 14.9 |
| CCCCCCC/C=C/C=C/CCCC(=O)OC(CO)CO | 14.2 |
| Cc1c(O)c(-c2c(O)c(C)c3c(c2O)CO[C@H](C)[C@H]3C)c(O)c2c1[C@@H](C)[C@H](C)OC2 [ASPERBIPHENYL] | 35.5 |
| COc1cc2oc3cccc(O)c3c(=O)c2c2c1[C@@H]1C=CO[C@@H]1O2 [ASPERXANTHONE] | 62.9 |
